# Test system: tomato leaf
# Assay: Foliar absorption rate of sugar, Congo red method, tomato leaf
# Conditions: summary of TABLE 1 over tomato and strawberry leaves; no adjuvant
# Source text: In glass greenhouse, cucumber (Korean White, made by Farm Hannong, Korea) and tomato (Seogwangtomato, made by Farm Hannong, Korea) seeds were sown to raise plants. The young plants were transplanted to a vinyl cup having a diameter of 10 cm and cucumber was cultivated up to 4.5-leaf stage and tomato was cultivated up to 6.5-leaf stage. Strawberry young plants (KINGSBERRY) were given from strawberry laboratory, put in each cup pot having a diameter of 10 cm and cultivated up to 6 to 8-leaf stage in the greenhouse. […] Acetonitrile and nonionized water were mixed at 3:7 (volume/volume) to prepare a 30% acetonitrile aqueous solution, 8 ml was put into a test tube having an outer diameter of 32 mm and a length of 200 mm and the test tube was closed with a rubber lid. The leaves sprayed with the sugar aqueous solution was picked, put and cleaned by reverse shaking at the speed of 60 rpm for 2 minutes. The cleaning solution was analyzed by high-performance liquid chromatography (HPLC) to quantify Congo red and sugar, and the sugar absorption rate was calculated by the following Equation 1.
compound,measurement,value
OC[C@H]1O[C@@](CO)(O[C@H]2O[C@H](CO)[C@@H](O)[C@H](O)[C@H]2O)[C@@H](O)[C@@H]1O [sucrose],"Absorption by tomato leaves and strawberry leaves, maximum",≤ 1.3%

# — US20250212877A1, “SUGAR-CONTAINING COMPOSITION FOR FOLIAR SPRAY AND METHOD OF USING THE SAME” (priority 2022, published 2025)
